Data as given in US20080242724A1, “Ibopamine Maleate, Method for Preparing it and Pharmaceutical Compositions Containing It” (AZIENDE CHIM. RIUN. ANG. FRANC. A.C.R.A.F. S.P.A., priority 2004, published 2008).
Where a name gives a salt, the structure may show the parent alone.

Tested on: male rabbits (New Zealand White)
Assay: Ocular tolerability (Draize) after repeated instillation
Assay type: in vivo, rabbit
Conditions: for Conjunctiva Lachrymation / Conjunctiva Reddening / Conjunctiva Swelling / Cornea Area of the cornea affected by opacity / Cornea Opacity / Iris: Draize score; for Conjunctiva Lachrymation / Conjunctiva Reddening / Conjunctiva Swelling / Cornea Area of the cornea affected by opacity / Cornea Opacity / Iris / Total Score: rabbit eye, 0.1 ml aqueous solution (corresponding to 1.79% by weight of ibopamine, pH 7.0) three times a day for fifteen days; for local tolerability: compared with the hydrochloride, statement in words; for Total Score: sum of Draize scores
Experimental: Two aqueous solutions were used.
The first contained 2% by weight of ibopamine hydrochloride (corresponding to 1.79% by weight of ibopamine) buffered to pH 7.0.
The second contained 2.46% by weight of ibopamine maleate (corresponding to 1.79% by weight of ibopamine) buffered to pH 7.0.
12 male rabbits (New Zealand White) with an average weight of 2 kg and an average age of ten months were used, divided into two groups of six rabbits each. The first group was treated with 0.1 ml of the first test solution three times a day for fifteen days. The second group was treated with 0.1 ml of the second test solution three times a day for fifteen days.
The tolerability was evaluated according to J. Draize et al., Pharmacol. Exp. Ther., 83, 377-390 (1944).

Compound: ibopamine maleate (1:1)
- Conjunctiva Lachrymation: 1
- Conjunctiva Reddening: 1
- Conjunctiva Swelling: 0
- Cornea Area of the cornea affected by opacity: 1
- Cornea Opacity: 0
- Iris: 0
- local tolerability (listed as ibopamine maleate): better local tolerability
- local tolerability (listed as maleate): better local tolerability than the hydrochloride
- Total Score: 3

Compound: CNCCc1ccc(OC(=O)C(C)C)c(OC(=O)C(C)C)c1 [Ibopamine hydrochloride, ibopamine hydrochloride, reference compound]
- Conjunctiva Lachrymation: 2
- Conjunctiva Reddening: 1
- Conjunctiva Swelling: 1
- Cornea Area of the cornea affected by opacity: 2
- Cornea Opacity: 1
- Iris: 1
- Total Score: 8
